# Counter-ions that a name gives are not always drawn.
# System: patients diagnosed to be voiding dysfunction associated with neurogenic bladder
# Assay: Clinical test to patients of voiding dysfunction associated with neurogenic bladder
# Assay type: in vivo
# Description: Test Example 1. Clinical Test to Patients of Voiding Dysfunction Associated with Neurogenic Bladder. Clinical test was carried out under the following conditions to the causes of voiding dysfunction associated with neurogenic bladder. Patients: Sixty patients diagnosed to be voiding dysfunction associated with neurogenic bladder (excluding the cases where the cause was peripheral diseases). Used drug and method of administration: Capsule preparation containing 0.2 mg of tamsulosin hydrochloride or placebo capsule was used and two capsules were orally administered after breakfast (once daily) for four weeks. […] Approximate safety was evaluated as no problem, little problems, some problems and problems according to the presence/absence and degree of side effect, change of blood pressure and pulse rate, and abnormal change in clinical date. Impression by the patient was judged to be much improvement, improvement, some improvement, no change, some worsening, worsening and much worsening. Finally, degree of improvement as a whole, approximate safety and impression by patient were taken into consideration and the final judgement for the Usefulness wan judged to be any of the […]—very useful, useful, somewhat useful and not preferable.
# [1] = compared with placebo group, two 0.2 mg capsules orally once daily, four weeks
# [2] = share of patients (12/20), two 0.2 mg capsules orally once daily, four weeks
# [3] = two 0.2 mg capsules orally once daily after breakfast, four weeks, n = 16
# [4] = two 0.2 mg capsules orally once daily after breakfast, four weeks, n = 23
structure (smiles),measurement,setting,value
"CCOc1ccccc1OCCN[C@H](C)Cc1ccc(OC)c(S(N)(=O)=O)c1 [Tamsulosin Hydrochloride, (R)(−)-5-{2-{[2-(o-ethoxyphenoxy)ethyl}amino]propyl}-2-methoxybenzene-sulfonamide]","Approximate safety (side effect, blood pressure, pulse rate, clinical data)",[1],no significant difference
same,Impression by patient,[1],no significant difference
same,"Usefulness as a therapeutic agent (final judgement, in words)",impression by the patients further taken into consideration,useful as a therapeutic agent
same,Improvement of subjective symptom and objective observation and improvement as a whole (in words),patients suffering from voiding dysfunction associated with neurogenic bladder,significant improvement
same,"Degree of Improvement in Subjective Symptoms, ≧Medium Improvement","share of patients (10/23), two 0.2 mg capsules orally once daily, four weeks",43.5%
same,"Degree of Improvement as a Whole, ≧Medium Improvement",[2],60.0%
same,"Degree of Improvement in Objective Observation, ≧Medium Improvement",[2],80.0%
same,"Usefulness, ≧Useful","share of patients (12/23), two 0.2 mg capsules orally once daily, four weeks",52.2%
same,Average Urinary Flow (Changing Amt),[3],1.2 ± 1.66 mL/s
same,Maximum Urinary Flow (Changing Amt),[3],2.5 ± 3.01 mL/s
same,Residual Urine Rate (Changing Amt),[3],−13 ± 20.0%
same,Residual Urine Amount (Changing Amt),[4],-18 ± 80.1 mL
same,Total Score (Changing Rate) of subjective symptoms (1)-(8),[4],−31 ± 34.2%

# Reference: US6861070B1, “Medicinal compositions for treating evacuatory insufficiency” (Yamanouchi Pharmaceutical Co., Ltd., priority 1998, dated 2005)
